Counter-ions that a name gives are not always drawn.
Assays:
[1] = Hygroscopicity evaluation (DVS) of salts of compound I-18; format: physicochemical; details: 25° C.
Protocol: To investigate the solid form stability as a function of humidity, DVS isotherm plot of the K salt, Arginine salt, Choline salt and Tris salt were collected at 25° C. between 0 and 95% RH.

[2] = Physical and chemical stability of salts of compound I-18; format: physicochemical; details: for Area (%) of peak at RRT 1.00: main peak; for Area (%) of peak at RRT 1.17: peak corresponds to I-1 formed by hydrolysis; for Initial purity: before storage
Protocol: The physical and chemical stability of the K salt, Arginine salt, Choline salt and Tris salt were evaluated under conditions of 25° C./60% RH and 40° C./75% RH for 1 week. Each sample was added into 3 mL glass vials, sealed by parafilm with several holes, and kept under tested condition. After one week, samples was taken for XRPD and HPLC purity test.

[3] = 25° C./60% RH, 1 week, listed as arginine salt
[4] = 40° C./75% RH, 1 week, listed as arginine salt
[5] = Initial, listed as arginine salt
[6] = 25° C./60% RH, 1 week, listed as potassium salt
[7] = 40° C./75% RH, 1 week, listed as potassium salt
[8] = Initial, listed as potassium salt
[9] = 25° C./60% RH, 1 week, listed as tris salt
[10] = 40° C./75% RH, 1 week, listed as tris salt

SMILES: CCO[C@H]1CC[C@H](n2cc(NC(=O)c3csc(-c4cnn(C(C)OP(=O)(O)O)c4)n3)c(-c3nc(F)ccc3F)n2)CC1 (some centres unmarked) [Compound I-110, 1-(4-(4-((3-(3,6-difluoropyridin-2-yl)-1-((1r, 4r)-4-ethoxycyclohexyl)-1H-pyrazol-4-yl)carbamoyl)thiazol-2-yl)-1H-pyrazol-1-yl)ethyl dihydrogen phosphate arginine salt]
- water uptake (DVS) ([1]; at 80% RH): 1.43%
- hygroscopicity (DVS) ([1]; from water uptake at 80% RH): slight hygroscopic
- Area (%) of peak at RRT 1.13 ([2]; 25° C./60% RH, 1 week): 0.06%
- Area (%) of peak at RRT 0.77 [2, 3]: 0.03%
- Area (%) of peak at RRT 1.35 [2, 3]: 0.06%
- Area (%) of peak at RRT 1.45 [2, 3]: 0.50%
- Area (%) of peak at RRT 1.71 [2, 3]: 0.74%
- Area (%) of peak at RRT 1.73 [2, 3]: 0.61%
- HPLC purity change [2, 3]: slight purity decrease
- Area (%) of peak at RRT 1.00 [2, 3]: 95.31%
- Area (%) of peak at RRT 1.17 [2, 3]: 2.68%
- Form change (XRPD) ([2]; 25° C./60% RH/1 week, listed as Arginine salt): no form change and No
- Area (%) of peak at RRT 1.13 ([2]; 40° C./75% RH, 1 week): 0.06%
- Area (%) of peak at RRT 0.77 [2, 4]: 0.04%
- Area (%) of peak at RRT 1.35 [2, 4]: 0.11%
- Area (%) of peak at RRT 1.45 [2, 4]: 0.47%
- Area (%) of peak at RRT 1.71 [2, 4]: 0.73%
- Area (%) of peak at RRT 1.73 [2, 4]: 0.60%
- HPLC purity change [2, 4]: slight purity decrease
- Area (%) of peak at RRT 1.00 [2, 4]: 95.50%
- Area (%) of peak at RRT 1.17 [2, 4]: 2.48%
- Form change (XRPD) ([2]; 40° C./75% RH/1 week, listed as Arginine salt): no form change and No
- Area (%) of peak at RRT 1.35 ([2]; Initial): <0.03%
- Area (%) of peak at RRT 0.77 [2, 5]: <0.03%
- Area (%) of peak at RRT 1.13 [2, 5]: <0.03%
- Area (%) of peak at RRT 1.45 [2, 5]: 0.44%
- Area (%) of peak at RRT 1.71 [2, 5]: 0.73%
- Area (%) of peak at RRT 1.73 [2, 5]: <0.53%
- Area (%) of peak at RRT 1.00 [2, 5]: 95.91%
- Area (%) of peak at RRT 1.17 [2, 5]: 2.39%
- Initial purity ([2]; listed as Arginine salt): 95.91 area %

SMILES: CCO[C@H]1CC[C@H](n2cc(NC(=O)c3csc(-c4cnn(C(C)OP(=O)(O)O)c4)n3)c(-c3nc(F)ccc3F)n2)CC1 (some centres unmarked) [Compound I-108, potassium 1-(4-(4-((3-(3,6-difluoropyridin-2-yl)-1-((1r, 4r)-4-ethoxycyclohexyl)-1H-pyrazol-4-yl)carbamoyl)thiazol-2-yl)-1H-pyrazol-1-yl)ethyl hydrogen phosphate]
- water uptake (DVS) ([1]; at 70% RH, listed as K salt): 0.42%
- water uptake (DVS) ([1]; at 95% RH, listed as K salt): 16.5%
- Area (%) of peak at RRT 1.14 ([2]; 25° C./60% RH, 1 week): <0.04%
- Area (%) of peak at RRT 1.40 ([2]; 25° C./60% RH, 1 week): 0.25%
- Area (%) of peak at RRT 1.44 ([2]; 25° C./60% RH, 1 week): 0.30%
- Area (%) of peak at RRT 1.70 ([2]; 25° C./60% RH, 1 week): 0.27%
- Area (%) of peak at RRT 1.72 ([2]; 25° C./60% RH, 1 week): 0.78%
- Area (%) of peak at RRT 1.81 ([2]; 25° C./60% RH, 1 week): <0.04%
- HPLC purity change ([2]; 25° C./60% RH, 1 week, listed as K salt): slight purity decrease
- Area (%) of peak at RRT 1.00 [2, 6]: 96.26%
- Area (%) of peak at RRT 1.17 [2, 6]: 2.14%
- Form change (XRPD) ([2]; 25° C./60% RH/1 week, listed as K salt): no form change and No
- Area (%) of peak at RRT 1.14 ([2]; 40° C./75% RH, 1 week): 0.05%
- Area (%) of peak at RRT 1.40 ([2]; 40° C./75% RH, 1 week): 0.39%
- Area (%) of peak at RRT 1.44 ([2]; 40° C./75% RH, 1 week): 0.24%
- Area (%) of peak at RRT 1.70 ([2]; 40° C./75% RH, 1 week): 0.24%
- Area (%) of peak at RRT 1.72 ([2]; 40° C./75% RH, 1 week): 0.83%
- Area (%) of peak at RRT 1.81 ([2]; 40° C./75% RH, 1 week): 0.04%
- HPLC purity change ([2]; 40° C./75% RH, 1 week, listed as K salt): slight purity decrease
- Area (%) of peak at RRT 1.00 [2, 7]: 96.40%
- Area (%) of peak at RRT 1.17 [2, 7]: 1.80%
- Form change (XRPD) ([2]; 40° C./75% RH/1 week, listed as K salt): a form change was observed and Yes
- Area (%) of peak at RRT 1.14 ([2]; Initial): <0.04%
- Area (%) of peak at RRT 1.40 ([2]; Initial): 0.23%
- Area (%) of peak at RRT 1.44 ([2]; Initial): 0.21%
- Area (%) of peak at RRT 1.70 ([2]; Initial): 0.18%
- Area (%) of peak at RRT 1.72 ([2]; Initial): 0.77%
- Area (%) of peak at RRT 1.81 ([2]; Initial): <0.04%
- Area (%) of peak at RRT 1.00 [2, 8]: 97.27%
- Area (%) of peak at RRT 1.17 [2, 8]: 1.33%
- Initial purity ([2]; listed as K salt): 97.27 area %

SMILES: CCO[C@H]1CC[C@H](n2cc(NC(=O)c3csc(-c4cnn(C(C)OP(=O)(O)O)c4)n3)c(-c3nc(F)ccc3F)n2)CC1 (some centres unmarked) [Compound I-49, 1-(4-(4-((3-(3,6-difluoropyridin-2-yl)-1-((1r, 4r)-4-ethoxycyclohexyl)-1H-pyrazol-4-yl)carbamoyl)thiazol-2-yl)-1H-pyrazol-1-yl)ethyl dihydrogen phosphate tris salt]
- water uptake (DVS) ([1]; at 70% RH, listed as Tris salt): 6.06%
- water uptake (DVS) ([1]; at 95% RH, listed as Tris salt): 39.5%
- Area (%) of peak at RRT 1.13 ([2]; 25° C./60% RH, 1 week): 0.06%
- Area (%) of peak at RRT 0.77 [2, 9]: <0.03%
- Area (%) of peak at RRT 1.45 [2, 9]: 0.35%
- Area (%) of peak at RRT 1.71 [2, 9]: 0.80%
- Area (%) of peak at RRT 1.73 [2, 9]: 0.55%
- HPLC purity change [2, 9]: no HPLC purity decrease
- Area (%) of peak at RRT 1.00 [2, 9]: 96.61%
- Area (%) of peak at RRT 1.17 [2, 9]: 1.63%
- Form change (XRPD) ([2]; 25° C./60% RH/1 week, listed as Tris salt): no form change and No
- Area (%) of peak at RRT 0.77 [2, 10]: 0.03%
- Area (%) of peak at RRT 1.45 [2, 10]: 0.47%
- Area (%) of peak at RRT 1.71 [2, 10]: 0.88%
- Area (%) of peak at RRT 1.73 [2, 10]: 0.84%
- HPLC purity change [2, 10]: a purity decrease was observed
- Area (%) of peak at RRT 1.00 [2, 10]: 95.03%
- Area (%) of peak at RRT 1.17 [2, 10]: 2.69%
- Form change (XRPD) ([2]; 40° C./75% RH/1 week, listed as Tris salt): no form change and No
- Area (%) of peak at RRT 0.77 ([2]; Initial, listed as tris salt): <0.03%
- Area (%) of peak at RRT 1.13 ([2]; Initial, listed as tris salt): 0.07%
- Area (%) of peak at RRT 1.45 ([2]; Initial, listed as tris salt): 0.37%
- Area (%) of peak at RRT 1.71 ([2]; Initial, listed as tris salt): 0.86%
- Area (%) of peak at RRT 1.73 ([2]; Initial, listed as tris salt): 0.76%
- Area (%) of peak at RRT 1.00 ([2]; Initial, listed as tris salt): 96.06%
- Area (%) of peak at RRT 1.17 ([2]; Initial, listed as tris salt): 1.87%
- Initial purity ([2]; listed as Tris salt): 96.06 area %

Reference: US12357623B2, “Method for treating a disease or condition using a pyrazole compound or formulation thereof” (Rigel Pharmaceuticals, Inc., priority 2021, dated 2025)
